ChEMBL document CHEMBL1149860, “Synthesis and neuropharmacological characterization of 2-O-substituted apomorphines” (Bioorg Med Chem, 2008)
One block for each compound: values may come before it.

Assays:
[1] = biological target: T1, D(2) dopamine receptor (Rattus norvegicus, UniProt P61169); assay: Agonist activity at rat dopamine D2(short) receptor expressed in CHOK1 cells by [35S]GTPgammaS binding assay; type: functional, cell-based, CHO-K1
[2] = biological target: D(2) dopamine receptor (Rattus norvegicus) (UniProt P61169); assay: Agonist activity at rat dopamine D2(short) receptor expressed in CHOK1 cells by [35S]GTPgammaS binding assay relative to quinpirole; type: functional, cell-based; conditions: CHO-K1
Chain of D(2) dopamine receptor (Rattus norvegicus) (P61169 whole entry): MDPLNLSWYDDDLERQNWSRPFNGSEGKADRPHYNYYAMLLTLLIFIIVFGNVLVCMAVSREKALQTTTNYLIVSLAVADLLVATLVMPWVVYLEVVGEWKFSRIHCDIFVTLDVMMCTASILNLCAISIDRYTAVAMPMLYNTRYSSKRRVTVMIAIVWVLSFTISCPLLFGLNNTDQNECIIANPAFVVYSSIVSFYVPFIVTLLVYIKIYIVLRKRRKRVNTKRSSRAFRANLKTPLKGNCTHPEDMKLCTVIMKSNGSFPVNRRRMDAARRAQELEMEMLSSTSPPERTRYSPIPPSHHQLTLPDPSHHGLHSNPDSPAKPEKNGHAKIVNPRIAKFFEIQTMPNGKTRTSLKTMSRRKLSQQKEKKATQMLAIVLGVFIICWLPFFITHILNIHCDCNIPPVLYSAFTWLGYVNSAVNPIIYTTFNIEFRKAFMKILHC

[3] = biological target: T1, D(2) dopamine receptor; assay: Displacement of [3H]raclopride from rat dopamine D2(short) receptor expressed in CHOK1 cells; type: cell-based, CHO-K1
[4] = biological target: D(1A) dopamine receptor (Mus musculus, UniProt Q61616); assay: Displacement of [3H]SCH23390 from dopamine D1 receptor in mouse Ltk- fibroblast cells; type: cell-based
Chain of D(1A) dopamine receptor (Q61616 whole entry): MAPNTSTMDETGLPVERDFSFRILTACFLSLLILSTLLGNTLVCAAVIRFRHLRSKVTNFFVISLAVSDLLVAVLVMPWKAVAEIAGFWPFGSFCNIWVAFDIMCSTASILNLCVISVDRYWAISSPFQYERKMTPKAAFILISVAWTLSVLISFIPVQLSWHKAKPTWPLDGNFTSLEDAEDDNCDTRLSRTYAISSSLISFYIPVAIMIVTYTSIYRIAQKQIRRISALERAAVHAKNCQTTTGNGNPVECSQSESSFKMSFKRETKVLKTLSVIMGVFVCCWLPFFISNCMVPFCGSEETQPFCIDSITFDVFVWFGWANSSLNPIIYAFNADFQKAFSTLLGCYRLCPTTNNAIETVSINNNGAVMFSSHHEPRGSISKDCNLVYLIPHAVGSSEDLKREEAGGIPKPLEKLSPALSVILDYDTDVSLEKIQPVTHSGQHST

[5] = biological target: T1, D(2) dopamine receptor; assay: Displacement of [3H]raclopride from dopamine D2 receptor in rat striatal membrane; type: cell membranes, Striatum
[6] = biological target: D(2) dopamine receptor (Homo sapiens, UniProt P14416); assay: biochemical
Chain of D(2) dopamine receptor (Homo sapiens, UniProt P14416) (P14416 whole entry): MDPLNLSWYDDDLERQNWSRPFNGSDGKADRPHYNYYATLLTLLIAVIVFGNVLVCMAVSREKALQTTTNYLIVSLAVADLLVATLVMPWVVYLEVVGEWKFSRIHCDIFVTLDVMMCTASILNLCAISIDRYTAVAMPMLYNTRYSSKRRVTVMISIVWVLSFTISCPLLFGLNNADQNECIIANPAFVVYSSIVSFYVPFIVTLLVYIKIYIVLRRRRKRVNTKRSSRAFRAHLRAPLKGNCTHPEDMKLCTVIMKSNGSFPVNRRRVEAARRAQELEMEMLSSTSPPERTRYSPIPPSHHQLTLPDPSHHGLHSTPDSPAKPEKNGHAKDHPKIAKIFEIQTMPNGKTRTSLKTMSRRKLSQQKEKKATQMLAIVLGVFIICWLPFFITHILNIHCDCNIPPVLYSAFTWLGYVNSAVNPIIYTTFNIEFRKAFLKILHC
Description: Displacement of [3H]raclopride from human cloned dopamine D2 receptor expressed in CHO cell membrane

T1 sequence (P61169 whole entry): as the sequence (P61169 whole entry) above

SMILES: CCCCOc1cc2c3c(c1)-c1c(ccc(O)c1O)C[C@H]3N(C)CC2
EC50 [1]: 58 nM | Efficacy [2]: 57% | Ki [3]: 60 nM | Ki [4]: 2100 nM

SMILES: CCCOc1cc2c3c(c1)-c1c(ccc(O)c1O)C[C@H]3N(C)CC2
EC50 [1]: 76 nM | Efficacy [2]: 71% | Ki [3]: 75 nM | Ki [4]: 3500 nM

SMILES: CN1CCc2cc(N)cc3c2[C@H]1Cc1ccc(O)c(O)c1-3
Ki [5]: 19.9 nM

SMILES: CSc1cc2c3c(c1)-c1c(ccc(O)c1O)C[C@H]3N(C)CC2
Ki [5]: 54.7 nM

SMILES: CN1CCc2cc(F)cc3c2[C@H]1Cc1ccc(O)c(O)c1-3
Ki [5]: 0.43 nM

Ki [6]: 3.8 nM
SMILES: CN1CCc2cc(-c3ccc(O)cc3)cc3c2[C@H]1Cc1ccc(O)c(O)c1-3

SMILES: CN1CCc2cc(OCCOCCO)cc3c2[C@H]1Cc1ccc(O)c(O)c1-3
EC50 [1]: 939 nM | Efficacy [2]: 58% | Ki [3]: 587 nM | Ki [4]: 7600 nM

SMILES: COc1cc2c3c(c1)-c1c(ccc(O)c1O)CC3N(C)CC2 (stereo unspecified)
EC50 [1]: 114 nM | Efficacy [2]: 66% | Ki [3]: 74 nM | Ki [4]: 2600 nM

SMILES: CCOc1cc2c3c(c1)-c1c(ccc(O)c1O)C[C@H]3N(C)CC2
EC50 [1]: 55 nM | Efficacy [2]: 70% | Ki [3]: 44 nM | Ki [4]: 2900 nM

SMILES: CN1CCc2cc(OCCO)cc3c2[C@H]1Cc1ccc(O)c(O)c1-3
EC50 [1]: 315 nM | Efficacy [2]: 19% | Ki [3]: 347 nM | Ki [4]: 5300 nM

EC50 [1]: > 10000 nM | Ki [3]: 17200 nM | Ki [4]: > 10000 nM
SMILES: CN1CCc2cc(OCCOCCOc3cc4c5c(c3)-c3c(ccc(O)c3O)C[C@H]5N(C)CC4)cc3c2[C@H]1Cc1ccc(O)c(O)c1-3

Ki [6]: 88 nM
SMILES: CN1CCc2cc(-c3ccccc3)cc3c2[C@H]1Cc1ccc(O)c(O)c1-3

SMILES: CN1CCc2cc(OCCOc3cc4c5c(c3)-c3c(ccc(O)c3O)C[C@H]5N(C)CC4)cc3c2[C@H]1Cc1ccc(O)c(O)c1-3
EC50 [1]: 308 nM | Efficacy [2]: 18% | Ki [3]: 345 nM | Ki [4]: 5200 nM
